Read-outs that look alike come from different tables or passages of the source.
Key:
[1] = tested on: purified human FH; assay: Factor H (FH) binding to gonococci by flow cytometry; format: cell-based; conditions: F62 ΔlgtD grown with 20 μg/mL CMP-NulO, human FH 20 μg/mL
Experimental: FIG. 1: CMP-KDN serves as a substrate for gonococcal LOS and incorporation of KDN on gonococcal lacto-N-neotetraose LOS enhances factor H (FH) binding. A. Incorporation of KDN by gonococci. Gonococcal strain F62 ΔlgtD (expresses lacto-N-neotetraose (LNnT) from Hepl) was grown in media containing CMP-KDN (20 μg/mL) and binding of mAb 3F11 was measured by flow cytometry. mAb 3F11 binds only to […] LNnT; substitution of the terminal Gal of LNnT, for example with a NulO, will decrease mAb 3F11 binding. Approximately 5×10^7 bacteria were incubated with mAb 3F11 tissue culture supernatants for 15 minutes at 37° C. Binding of mAb 3F11 was disclosed with anti-mouse IgM FITC (Sigma; dilution of 1:100). Bacteria grown in CMP-Neu5Ac or in media alone were used as positive and negative controls for sialylation, respectively. A representative histogram is shown in the upper panel. […] B. Factor H (FH) binding to gonococci grown in CMP-KDN. Approximately 5×10^7 bacteria grown in media alone (no sialic acid), media plus CMP-Neu5Ac (20 μg/mL; positive control for FH binding) or in media containing CMP-KDN (20 μg/mL) were incubated with purified human FH (20 μg/mL) in HBSS** for 15 minutes at 37° C. and bound FH was detected with affinity isolated goat anti-human FH followed by anti-goat IgG FITC (Sigma; 1:100 dilution). A representative histogram is shown in the upper panel. […]

[2] = tested on: N. gonorrhoeae F62 ΔlgtD; format: cell-based, Neisseria gonorrhoeae
Experimental: Generally, bacteria (F62 ΔlgtD) grown overnight on chocolate agar plates were suspended in gonococcal liquid media supplemented with IsoVitaleX [29] that contained specified concentrations of the CMP-nonulosonate. Bacteria were then incubated at 37° C. for the period specified in each experiment.
Serum bactericidal assays were performed as follows, similar to methods outlined in [32,33] and in U.S. Pat. No. 9,765,106. Bacteria were harvested from an overnight culture on chocolate agar plates and ˜10^5 CFU of Ng were grown in liquid media containing the concentrations of CMP-NuIO as specified for each experiment. Bacteria were diluted in Morse A and ˜2000 CFU of Ng F62 ΔlgtD were incubated with NHS (concentration specified for each experiment). The final reaction volumes were maintained at 150 μL. Aliquots of 25 μL of reaction mixtures were plated onto chocolate agar in duplicate at the beginning of the assay (t0) and again after incubation at 37° C. for 30 minutes (t30). Survival was calculated as the number of viable colonies at t30 relative to t0.
Addition of a terminal Neu5Ac residue to the LNnT LOS of N. gonorrhoeae that occurs in vivo or following the addition of CMP-Neu5Ac to growth media results in resistance to complement-dependent killing. We next determined the effects of LNnT incorporation of KDN on the ability of N. gonorrhoeae F62 ΔlgtD to resist complement-dependent killing by normal human sera at concentrations of 3.3% or 10%. Bacteria were grown either in media alone, or media supplemented with 20 μg/mL of CMP-Neu5Ac or CMP-KDN. In addition, CMP-NulO competition experiments were also performed with CMP-Neu5Ac, CMP-Leg5Ac7Ac and CMP-KDN at CMP-NulO concentrations of either 20 μg/mL or 2 μg/mL as indicated, where the second CMP-NulO was added 15 minutes after the first (Table 1 below). To note, these CMP-NulO competition experiments are a method to examine the ability of select CMP-NulOs to counter the enhanced serum resistance due to CMP-Neu5Ac addition, providing information on their therapeutic potential (as any potential therapeutic will be required to compete with CMP-Neu5Ac in vivo).

Nc1ccn([C@@H]2O[C@H](COP(=O)(O)O[C@@]3(C(=O)O)CC(O)[C@@H](O)C([C@H](O)[C@H](O)CO)O3)C(O)C2O)c(=O)n1 (stereo partly drawn) [CMP-KDN, cytidine 5′-monophospho-3-deoxy-D-glycero-D-galacto-nonulosonic acid]
fH binding to bacteria [1]: half of that observed for Neu5Ac
% survival in 3.3% serum ([2]; CMP-Neu5Ac (20 μg/mL) first, labelled CMP-NulO (20 μg/mL) added 15 minutes later, 3.3% serum): 107%
% survival in 10% serum ([2]; CMP-Neu5Ac (20 μg/mL) first, labelled CMP-NulO (20 μg/mL) added 15 minutes later, 10% serum): 108%
serum resistance (in words) ([2]; CMP-NulO alone, 3.3% serum): complete serum resistance was observed
serum sensitivity (in words) ([2]; CMP-NulO alone, 10% serum): serum sensitivity was observed
countering of serum resistance mediated by CMP-Neu5Ac (competition, in words) ([2]; CMP-NulO competition, second CMP-NulO 15 minutes after the first, 3.3% and 10% serum): could only counter CMP-Neu5Ac induced serum resistance if it was provided before CMP-Neu5Ac
% survival in 3.3% serum ([2]; Table 1, CMP-NulO 20 μg/mL alone, 3.3% serum): 110%
% survival in 10% serum ([2]; Table 1, CMP-NulO 20 μg/mL alone, 10% serum): 11%
% survival in 3.3% serum ([2]; labelled CMP-NulO (20 μg/mL) first, CMP-Neu5Ac (2 μg/mL) added 15 minutes later, 3.3% serum): 107%
% survival in 10% serum ([2]; labelled CMP-NulO (20 μg/mL) first, CMP-Neu5Ac (2 μg/mL) added 15 minutes later, 10% serum): 10%
% survival in 3.3% serum ([2]; labelled CMP-NulO (20 μg/mL) first, CMP-Neu5Ac (20 μg/mL) added 15 minutes later, 3.3% serum): 107%
% survival in 10% serum ([2]; labelled CMP-NulO (20 μg/mL) first, CMP-Neu5Ac (20 μg/mL) added 15 minutes later, 10% serum): 11%

From patent US20210401863A1, “TREATMENT AND PREVENTION OF NEISSERIA GONORRHOEAE INFECTION USING CMP-ACTIVATED NONULOSONATE ANALOG COMPOUNDS” (NATIONAL RESEARCH COUNCIL OF CANADA, priority 2015, published 2021)
